Source: the NIST ThermoML archive (doi:10.1016/j.tca.2018.10.018)
Numbers after ± are expanded uncertainties.

Columns and labels:
[1] = xn = mol fraction of the nth substance listed; conditions: Liquid, x2 = 0; for viscosity: Capillary tube (Ostwald / Ubbelohde) method; for mass density: Siemens Coriolis flowmeter
[2] = Liquid; for viscosity: Capillary tube (Ostwald / Ubbelohde) method; for mass density: Siemens Coriolis flowmeter

CCCCCCC [heptane] + CCCCCCCCCC(=O)OC
[1]
Conditions | mass density, 298.15 K [kg/m3] | mass density, 308.15 K [kg/m3] | mass density, 318.15 K [kg/m3] | viscosity, 298.15 K [mPa·s] | viscosity, 308.15 K [mPa·s] | viscosity, 318.15 K [mPa·s]
100 kPa | 680 ± 2 | 670 ± 2 | 662 ± 2 | 0.404 ± 0.013 | 0.367 ± 0.011 | 0.33 ± 0.01
3000 kPa | 683 ± 2 | 674 ± 2 | 666 ± 2 | 0.415 ± 0.013 | 0.371 ± 0.012 | 0.339 ± 0.011
6000 kPa | 686 ± 2 | 677 ± 2 | 669 ± 2 | 0.42 ± 0.013 | 0.385 ± 0.012 | 0.347 ± 0.011
9000 kPa | 689 ± 2 | 680 ± 2 | 672 ± 2 | 0.432 ± 0.013 | 0.396 ± 0.012 | 0.359 ± 0.011
12000 kPa | 691 ± 2 | 683 ± 2 | 675 ± 2 | 0.446 ± 0.014 | 0.404 ± 0.013 | 0.369 ± 0.012
15000 kPa | 694 ± 2 | 685 ± 2 | 678 ± 2 | 0.454 ± 0.014 | 0.411 ± 0.013 | 0.374 ± 0.012

CCCCCCC [heptane]
[2]
Conditions | mass density, 298.15 K [kg/m3] | mass density, 308.15 K [kg/m3] | mass density, 318.15 K [kg/m3] | viscosity, 298.15 K [mPa·s] | viscosity, 308.15 K [mPa·s] | viscosity, 318.15 K [mPa·s]
100 kPa | 680 ± 2 | 670 ± 2 | 662 ± 2 | 0.404 ± 0.013 | 0.367 ± 0.011 | 0.33 ± 0.01
3000 kPa | 683 ± 2 | 674 ± 2 | 666 ± 2 | 0.415 ± 0.013 | 0.371 ± 0.012 | 0.339 ± 0.011
6000 kPa | 686 ± 2 | 677 ± 2 | 669 ± 2 | 0.42 ± 0.013 | 0.385 ± 0.012 | 0.347 ± 0.011
9000 kPa | 689 ± 2 | 680 ± 2 | 672 ± 2 | 0.432 ± 0.013 | 0.396 ± 0.012 | 0.359 ± 0.011
12000 kPa | 691 ± 2 | 683 ± 2 | 675 ± 2 | 0.446 ± 0.014 | 0.404 ± 0.013 | 0.369 ± 0.012
15000 kPa | 694 ± 2 | 685 ± 2 | 678 ± 2 | 0.454 ± 0.014 | 0.411 ± 0.013 | 0.374 ± 0.012

CCCCCCCCCC(=O)OC [methyl decanoate]
[2]
Conditions | mass density, 298.15 K [kg/m3] | mass density, 308.15 K [kg/m3] | mass density, 318.15 K [kg/m3] | viscosity, 298.15 K [mPa·s] | viscosity, 308.15 K [mPa·s] | viscosity, 318.15 K [mPa·s]
100 kPa | 868 ± 2 | 860 ± 2 | 853 ± 2 | 1.934 ± 0.06 | 1.628 ± 0.05 | 1.38 ± 0.043
3000 kPa | 870 ± 2 | – | 854 ± 2 | 1.992 ± 0.061 | – | 1.417 ± 0.044
3010 kPa | – | 862 ± 2 | – | – | 1.675 ± 0.052 | –
6000 kPa | 872 ± 2 | 864 ± 2 | 856 ± 2 | 2.058 ± 0.064 | 1.727 ± 0.053 | 1.462 ± 0.045
9000 kPa | 874 ± 2 | 866 ± 2 | 859 ± 2 | 2.123 ± 0.066 | 1.779 ± 0.055 | 1.491 ± 0.046
12000 kPa | 877 ± 2 | 869 ± 2 | 861 ± 2 | 2.209 ± 0.068 | 1.835 ± 0.057 | 1.534 ± 0.047
15000 kPa | 878 ± 2 | 871 ± 2 | 863 ± 2 | 2.272 ± 0.07 | 1.888 ± 0.058 | 1.578 ± 0.049
